Data published in patent publication US12129221B2, “Difluoro phenyl amide RIP1 inhibitor” (SIRONAX LTD, priority 2018, dated 2024).
Entries after “also recorded” stand apart in the source; their conditions may differ. Read-outs that look alike come from different tables or passages of the source.

Key:
[1] = Liver microsome stability, dog; format: in vitro ADME; details: dog, liver microsomes
Excerpt: (§1) Representative Metabolic Stability Data I; +, Extrapolated.

[2] = Hepatocyte stability, dog; format: in vitro ADME; details: dog, hepatocytes, read-out: Dog T1/2
Excerpt: (§2) Representative Metabolic Stability Data II, +, Extrapolated.

PK in dog = details: in vivo
[3] = Hepatocyte stability, rat; format: in vitro ADME; details: rat, hepatocytes, read-out: Rat T1/2
Excerpt: as §2

[4] = Hepatocyte stability, mouse; format: in vitro ADME; details: mouse, hepatocytes, read-out: Mouse T1/2
Excerpt: as §2

[5] = Liver microsome stability, human; format: in vitro ADME; details: liver microsomes, liver microsome stability, read-out: Human T1/2
Excerpt: as §1

PK in mouse = details: in vivo
PK in rat = assay: PK in rat; set-up: species or system SD rat; details: Sprague-Dawley, in vivo; for half-life / bioavailability: rat
Excerpt: Representative PK Date of Pro-Drug Compounds

[6] = system: TNF-α-induced SIRS in mice; assay: Mouse SIRS model (TNF-α-induced mortality); format: in vivo, C57BI/6J mice; details: TNF-α intravenously 2 minutes after
Method: Effect on Mouse SIRS Model Sepsis preceded by systemic inflammatory response syndrome (SIRS), is a major cause of death in critically ill patients. TNF-α functions as a key mediator in SIRS pathogenesis by the induction of RIP1-RIP3 mediated necroptosis of the liver.
SIR1-365 was administrated as a single dose by oral gavage at 3 different doses: 1, 3, and 10 mg/kg to C57BI/6J mice. TNF-α was delivered intravenously 2 minutes after SIR1-365 administration. 87.5% (7 of 8) mice in the control group (given vehicle) died within 36 hours, whereas 50% (4 of 8) mice given SIR1-365 at 1 mg/kg and 25% (2 of 8) mice given SIR1-365 at 3 mg/kg died in the same period.

necrosis = assay: Necrosis inhibitory activity (cell necrosis / cell viability assay); format: cell-based
Excerpt: Necrosis Inhibitory Activity
(§3) Representative IC50 of hRIP1 Kinase Assay Correlated with Our IC50 of Cell Necrosis Assay: […]

[7] = Hepatocyte stability, monkey; format: in vitro ADME; details: monkey, hepatocytes, read-out: Monkey T1/2
Excerpt: as §2

[8] = Liver microsome stability, mouse; format: in vitro ADME; details: liver microsomes
Excerpt: as §1

ferroptosis = assay: Ferroptosis inhibitor activity; format: cell-based; details: 1 uM threshold activity extrapolated
Excerpt: Ferroptosis Inhibitor Activity 1 Um Threshold Activity Extrapolated

[9] = Hepatocyte stability, mini-pig; format: in vitro ADME; details: minipig, hepatocytes, read-out: mini-pig T1/2
Excerpt: as §2

[10] = Liver microsome stability, rat; format: in vitro ADME; details: liver microsomes
Excerpt: as §1

Human RIP1 kinase = Human RIP1 kinase (Homo sapiens (Human), UniProt Q13546); assay: Human RIP1 kinase assay; format: biochemical; details: given as bound or range
Excerpt: as §3

[11] = Hepatocyte stability, human; format: in vitro ADME; details: human, hepatocytes, read-out: Human T1/2
Excerpt: as §2

PK in monkey = details: in vivo
[12] = Hepatocyte Stability, comparison table
[13] = po, 60 mg/kg, SD rat, dose 60 mg/Kg micropower

Sequence of Human RIP1 kinase (Q13546 whole entry): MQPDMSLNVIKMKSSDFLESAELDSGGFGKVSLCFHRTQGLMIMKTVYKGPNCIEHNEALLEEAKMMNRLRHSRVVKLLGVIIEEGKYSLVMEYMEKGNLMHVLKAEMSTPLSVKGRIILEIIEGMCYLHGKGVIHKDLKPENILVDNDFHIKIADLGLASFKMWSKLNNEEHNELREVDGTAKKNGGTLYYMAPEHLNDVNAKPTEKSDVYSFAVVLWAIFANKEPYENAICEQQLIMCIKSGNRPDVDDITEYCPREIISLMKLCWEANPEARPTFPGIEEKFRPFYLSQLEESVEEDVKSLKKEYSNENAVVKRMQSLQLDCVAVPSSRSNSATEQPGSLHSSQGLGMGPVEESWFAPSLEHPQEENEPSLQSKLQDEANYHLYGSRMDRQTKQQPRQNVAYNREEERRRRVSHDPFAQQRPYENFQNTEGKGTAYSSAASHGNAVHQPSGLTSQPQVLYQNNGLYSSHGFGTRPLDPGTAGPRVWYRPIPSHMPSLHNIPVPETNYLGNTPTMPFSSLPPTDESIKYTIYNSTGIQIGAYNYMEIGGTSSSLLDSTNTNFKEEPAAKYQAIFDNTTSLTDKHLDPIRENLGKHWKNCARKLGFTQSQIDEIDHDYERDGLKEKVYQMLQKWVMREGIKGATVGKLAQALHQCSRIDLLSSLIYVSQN

## CCC(C)(C)C(=O)N(O)Cc1cc(F)cc(F)c1 [Compound 13, N-(3,5-difluorobenzyl)-N-hydroxy-2,2-dimethylbutanamide]
[1]; comparison table with WO2016/101885 compounds, read-out: Dog Liver Microsome T1/2
  half-life: 2 min
[1]; liver microsome stability, read-out: Dog T1/2
  half-life: 2.34 min
[2]; [12]
  half-life: 13 min
[2]; Hepatocyte stability
  half-life: 12.8 min
PK in dog; IV 2 mg/kg
  AUC(0-inf): 1840 ng·h/mL
  clearance: 18.5 mL/min/kg
  half-life: 61.2 min
PK in dog; IV 2 mg/kg, read-out: Vdss
  Vd: 0.73 L/kg
PK in dog; PO 10 mg/kg
  AUC(0-inf): 1320 ng·h/mL
  Cmax: 981 ng/mL
  bioavailability: 14.9%
  half-life: 429 min
PK in dog; PO 60 mg/kg
  AUC(0-inf): 2050 ng·h/mL
  Cmax: 938 ng/mL
  bioavailability: 4.06%
  half-life: 339 min
PK in dog; PO 150 mg/kg
  AUC(0-inf): 7230 ng·h/mL
  Cmax: 2440 ng/mL
  bioavailability: 5.33%
  half-life: 714 min
[3]; [12]
  half-life: 28 min
[3]; Hepatocyte stability
  half-life: 28 min
[4]; [12]
  half-life: 20 min
[4]; Hepatocyte stability
  half-life: 20.1 min
[5]
  half-life: 228 min
PK in mouse; IV 2 mg/kg
  AUC(0-inf): 489 ng·h/mL
  clearance: 68.2 mL/min/kg
  half-life: 17.4 min
PK in mouse; IV 2 mg/kg, read-out: Vdss
  Vd: 1.7 L/kg
PK in mouse; PO 10 mg/kg
  AUC(0-inf): 823 ng·h/mL
  Cmax: 1000 ng/mL
  bioavailability: 33.7%
  half-life: 28.8 min
PK in mouse; PO 40 mg/kg
  AUC(0-inf): 5410 ng·h/mL
  Cmax: 5420 ng/mL
  bioavailability: 55.4%
  half-life: 49.8 min
PK in rat; Rat, IV 2 mg/kg
  AUC(0-inf): 540 ng·h/mL
  clearance: 61.7 mL/min/kg
PK in rat; Rat, IV 2 mg/kg, read-out: Vdss
  Vd: 1.9 L/kg
PK in rat; Rat, PO 20 mg/kg
  AUC(0-inf): 1580 ng·h/mL
  Cmax: 1570 ng/mL
PK in rat; Rat, PO 60 mg/kg
  AUC(0-inf): 7520 ng·h/mL
  Cmax: 4910 ng/mL
PK in rat; SD rat, PO, dose 60 mg/Kg micropower
  AUC: 7520 ng·h/mL
PK in rat; iv, 2 mg/kg, IV 2 mg/kg
  half-life: 35.4 min
PK in rat; po, 20 mg/kg, PO 20 mg/kg
  bioavailability: 39.4%
  half-life: 84 min
PK in rat; po, 60 mg/kg, PO 60 mg/kg
  bioavailability: 62.8%
  half-life: 72 min
PK in rat; [13]
  bioavailability: 62.8%
  half-life: 70.2 min
[6]; single oral gavage dose 1 mg/kg
  mice died within 36 hours: 50%
[6]; single oral gavage dose 3 mg/kg
  mice died within 36 hours: 25%
[6]; single oral gavage dose 10 mg/kg, listed as SIR1-365
  mortality caused by SIRS: completely prevented mortality; also recorded: complete prevention
necrosis; Necrosis Inhibitory Activity, given as range, read-out: EC50
  EC50: 1 to 1000 nM
necrosis; cell necrosis assay, given as bound or range, read-out: Cell viability assay, EC50
  EC50: < 100 nM
[7]; [12]
  half-life: 25 min
[7]; Hepatocyte stability
  half-life: 24.9 min
[8]; comparison table with WO2016/101885 compounds, read-out: Mouse Liver Microsome T1/2
  half-life: 17 min
[8]; liver microsome stability, read-out: Mouse T1/2
  half-life: 17.1 min
ferroptosis
  EC50: 1000 to 10000 nM
[9]
  half-life: 21.2 min
[10]; comparison table with WO2016/101885 compounds, read-out: Rat Liver Microsome T1/2
  half-life: 20 min
[10]; liver microsome stability, read-out: Rat T1/2
  half-life: 19.9 min
Human RIP1 kinase
  IC50: < 100 nM
[11]; [12]
  half-life: 152 min
[11]; Hepatocyte stability
  half-life: 152 min
PK in monkey; IV 2 mg/kg
  AUC(0-inf): 1760 ng·h/mL
  clearance: 19.3 mL/min/kg
  half-life: 672 min
PK in monkey; IV 2 mg/kg, read-out: Vdss
  Vd: 0.93 L/kg
PK in monkey; PO 30 mg/kg
  AUC(0-inf): 6930 ng·h/mL
  Cmax: 3730 ng/mL
  bioavailability: 26.3%
  half-life: 90 min
PK in monkey; PO 100 mg/kg
  AUC(0-inf): 41600 ng·h/mL
  Cmax: 10700 ng/mL
  bioavailability: 47.5%
  half-life: 106 min
PK in monkey; PO 200 mg/kg
  AUC(0-inf): 87200 ng·h/mL
  Cmax: 20600 ng/mL
  bioavailability: 49.5%
  half-life: 130 min
